# The supplement of paper PMC8253809
# Tests used:
# SUDIPGXXI [1] = diffuse intrinsic pontine glioma line; experiment: maximal growth inhibition (yFin) relative to DMSO / staurosporine; higher = more efficacious
# In short: (§1)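 Patient-derived pHGG/DIPG cell lines and astrocyte controls were grown on 1% Geltrex-coated 384-well plates and exposed by pin tool to a 10-point threefold dilution series (mean top concentration 35 μM), in triplicate. Exposure was 7 days (iAstro 3 days) at 37 °C, 5% CO2. CellTiter-Glo luminescence was log2-transformed, normalised per plate to % activity between negative (solvent) and positive control wells, and pooled. EC50 and maximal response (yFin) come from the lowest-AICc three- or four-parameter log-logistic fit.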
# SUDIPGXIII [2] = diffuse intrinsic pontine glioma line; experiment: as above
# In short: as §1
# HGGX39 [3] = paediatric high-grade glioma line; experiment: as above
# In short: as §1
# SUDIPGXIX [4] = diffuse intrinsic pontine glioma line; experiment: as above
# In short: as §1
# HGGX42 [5] = H3.3 G34R paediatric high-grade glioma line; experiment: as above
# In short: as §1
# DIPGX7 [6] = H3.3 K27M diffuse intrinsic pontine glioma line; experiment: as above
# In short: as §1
# DIPGX29 [7] = H3.3 K27M diffuse intrinsic pontine glioma line; experiment: as above
# In short: as §1
# DIPGX37 [8] = H3.3 K27M diffuse intrinsic pontine glioma line; experiment: as above
# In short: as §1
# DIPGX9 [9] = diffuse intrinsic pontine glioma line; experiment: as above
# In short: as §1
# SUDIPGIV [10] = diffuse intrinsic pontine glioma line; experiment: as above
# In short: as §1
# SUDIPGXXI [11] = experiment: EC50 (inflection of fitted growth-inhibition curve) (log10 M)
# In short: as §1
# SUDIPGXIII [12] = experiment: as above
# In short: as §1
# HGGX39 [13] = experiment: as above
# In short: as §1
# SUDIPGXIX [14] = experiment: as above
# In short: as §1
# HGGX42 [15] = experiment: as above
# In short: as §1
# DIPGX7 [16] = experiment: as above
# In short: as §1
# DIPGX29 [17] = experiment: as above
# In short: as §1
# DIPGX37 [18] = experiment: as above
# In short: as §1
# DIPGX9 [19] = experiment: as above
# In short: as §1
# SUDIPGIV [20] = experiment: as above
# In short: as §1
# HGGX2 [21] = paediatric high-grade glioma line; experiment: area under dose-response curve of % growth inhibition (log2 RLU vs DMSO / staurosporine), 1e-11 to 1e-4 M (% x log10 M); higher = more growth inhibition
# In short: (§2)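 On 1% Geltrex-coated 384-well plates, patient-derived pHGG/DIPG cell lines and astrocytes were treated in triplicate across 10 threefold dilutions (mean top concentration 35 μM) for 7 days, with iAstro treated for 3 days, at 37 °C, 5% CO2. Log2-transformed CellTiter-Glo luminescence was normalised per plate to % activity between solvent and positive controls. Area under the curve was obtained by the trapezoid rule from a log-logistic fit, or from a smoothing spline when that fit failed.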
# SUDIPGXXI [22] = experiment: as above
# In short: as §2
# SUDIPGXIII [23] = experiment: as above
# In short: as §2
# SUDIPGXVII [24] = diffuse intrinsic pontine glioma line; experiment: as above
# In short: as §2
# HGGX39 [25] = experiment: as above
# In short: as §2
# HGGX6 [26] = H3.3 G34R paediatric high-grade glioma line; experiment: as above
# In short: as §2
# SUDIPGXIX [27] = experiment: as above
# In short: as §2
# HGGX42 [28] = experiment: as above
# In short: as §2
# SUDIPGVI = diffuse intrinsic pontine glioma line; experiment: as above
# In short: as §2
# iAstro [29] = astrocyte control; experiment: as above
# In short: as §2
# HABS [30] = astrocyte control; experiment: as above
# In short: as §2
# DIPGX7 [31] = experiment: as above
# In short: as §2
# DIPGX29 [32] = experiment: as above
# In short: as §2
# DIPGX37 [33] = experiment: as above
# In short: as §2
# DIPGX9 [34] = experiment: as above
# In short: as §2
# SUDIPGIV [35] = experiment: as above
# In short: as §2
# HGGX2 [36] = experiment: maximal growth inhibition (yFin) relative to DMSO / staurosporine; higher = more efficacious
# In short: as §1
# SUDIPGXVII [37] = experiment: as above
# In short: as §1
# HGGX6 [38] = experiment: as above
# In short: as §1
# iAstro [39] = experiment: as above
# In short: as §1
# HABS [40] = experiment: as above
# In short: as §1
# HGGX2 [41] = experiment: EC50 (inflection of fitted growth-inhibition curve) (log10 M)
# In short: as §1
# SUDIPGXVII [42] = experiment: as above
# In short: as §1
# HGGX6 [43] = experiment: as above
# In short: as §1
# iAstro [44] = experiment: as above
# In short: as §1
# HABS [45] = experiment: as above
# In short: as §1
smiles,measurement,setting,value
Cn1cnc([N+](=O)[O-])c1Sc1ncnc2[nH]cnc12 [AZATHIOPRINE],maximal growth inhibition,SUDIPGXXI [1],43.4%
same,maximal growth inhibition,SUDIPGXIII [2],21%
same,maximal growth inhibition,HGGX39 [3],52.1%
same,maximal growth inhibition,SUDIPGXIX [4],25.4%
same,maximal growth inhibition,HGGX42 [5],23.2%
same,maximal growth inhibition,DIPGX7 [6],32.3%
same,maximal growth inhibition,DIPGX29 [7],55.9%
same,maximal growth inhibition,DIPGX37 [8],53.7%
same,maximal growth inhibition,DIPGX9 [9],27.4%
same,maximal growth inhibition,SUDIPGIV [10],34%
same,EC50 (log10 M),SUDIPGXXI [11],-6.73
same,EC50 (log10 M),SUDIPGXIII [12],-6.03
same,EC50 (log10 M),HGGX39 [13],-5.65
same,EC50 (log10 M),SUDIPGXIX [14],-6.06
same,EC50 (log10 M),HGGX42 [15],-6.39
same,EC50 (log10 M),DIPGX7 [16],-5.08
same,EC50 (log10 M),DIPGX29 [17],-6.11
same,EC50 (log10 M),DIPGX37 [18],-5.6
same,EC50 (log10 M),DIPGX9 [19],-5.87
same,EC50 (log10 M),SUDIPGIV [20],-5.75
same,area under dose-response curve,HGGX2 [21],49.3
same,area under dose-response curve,SUDIPGXXI [22],119
same,area under dose-response curve,SUDIPGXIII [23],38.7
same,area under dose-response curve,SUDIPGXVII [24],37.4
same,area under dose-response curve,HGGX39 [25],80.7
same,area under dose-response curve,HGGX6 [26],50.7
same,area under dose-response curve,SUDIPGXIX [27],42.2
same,area under dose-response curve,HGGX42 [28],51
same,area under dose-response curve,SUDIPGVI,29
same,area under dose-response curve,iAstro [29],6.8
same,area under dose-response curve,HABS [30],15.3
same,area under dose-response curve,DIPGX7 [31],35.7
same,area under dose-response curve,DIPGX29 [32],119
same,area under dose-response curve,DIPGX37 [33],87.5
same,area under dose-response curve,DIPGX9 [34],52.8
same,area under dose-response curve,SUDIPGIV [35],60
CO[C@H]1C[C@@H]2CC[C@@H](C)[C@@](O)(O2)C(=O)C(=O)N2CCCC[C@H]2C(=O)O[C@H]([C@H](C)C[C@@H]2CC[C@@H](OCCO)[C@H](OC)C2)CC(=O)[C@H](C)/C=C(\C)[C@@H](O)[C@@H](OC)C(=O)[C@H](C)C[C@H](C)/C=C/C=C/C=C/1C [EVEROLIMUS],maximal growth inhibition,HGGX2 [36],94.8%
same,maximal growth inhibition,SUDIPGXIII [2],85.2%
same,maximal growth inhibition,SUDIPGXVII [37],73.8%
same,maximal growth inhibition,HGGX39 [3],97.2%
same,maximal growth inhibition,HGGX6 [38],50%
same,maximal growth inhibition,SUDIPGXIX [4],90.9%
same,maximal growth inhibition,HGGX42 [5],95.7%
same,maximal growth inhibition,iAstro [39],85%
same,maximal growth inhibition,HABS [40],86.6%
same,maximal growth inhibition,DIPGX7 [6],98.8%
same,maximal growth inhibition,DIPGX29 [7],107%
same,maximal growth inhibition,DIPGX37 [8],100%
same,maximal growth inhibition,SUDIPGIV [10],87.7%
same,EC50 (log10 M),HGGX2 [41],-4.67
same,EC50 (log10 M),SUDIPGXIII [12],-4.77
same,EC50 (log10 M),SUDIPGXVII [42],-4.83
same,EC50 (log10 M),HGGX39 [13],-4.56
same,EC50 (log10 M),HGGX6 [43],-4.78
same,EC50 (log10 M),SUDIPGXIX [14],-4.79
same,EC50 (log10 M),HGGX42 [15],-4.78
same,EC50 (log10 M),iAstro [44],-4.83
same,EC50 (log10 M),HABS [45],-4.63
same,EC50 (log10 M),DIPGX7 [16],-4.76
same,EC50 (log10 M),DIPGX29 [17],-4.57
same,EC50 (log10 M),DIPGX37 [18],-4.6
same,EC50 (log10 M),SUDIPGIV [20],-4.85
same,area under dose-response curve,HGGX2 [21],78.5
same,area under dose-response curve,SUDIPGXXI [22],203
same,area under dose-response curve,SUDIPGXIII [23],92.4
same,area under dose-response curve,SUDIPGXVII [24],74.4
same,area under dose-response curve,HGGX39 [25],99.1
same,area under dose-response curve,HGGX6 [26],62.9
same,area under dose-response curve,SUDIPGXIX [27],72
same,area under dose-response curve,HGGX42 [28],107
same,area under dose-response curve,SUDIPGVI,113
same,area under dose-response curve,iAstro [29],96.6
same,area under dose-response curve,HABS [30],54.8
same,area under dose-response curve,DIPGX7 [31],75.4
same,area under dose-response curve,DIPGX29 [32],95.9
same,area under dose-response curve,DIPGX37 [33],103
same,area under dose-response curve,DIPGX9 [34],149
same,area under dose-response curve,SUDIPGIV [35],97.4
CO[C@H]1C[C@@H]2CC[C@@H](C)[C@@](O)(O2)C(=O)C(=O)N2CCCC[C@H]2C(=O)O[C@H]([C@H](C)C[C@@H]2CC[C@@H](OC(=O)C(C)(CO)CO)[C@H](OC)C2)CC(=O)[C@H](C)/C=C(\C)[C@@H](O)[C@@H](OC)C(=O)[C@H](C)C[C@H](C)/C=C/C=C/C=C/1C [TEMSIROLIMUS],maximal growth inhibition,HGGX2 [36],77.4%
same,maximal growth inhibition,SUDIPGXXI [1],124%
same,maximal growth inhibition,SUDIPGXVII [37],24.2%
same,maximal growth inhibition,HGGX6 [38],58%
same,maximal growth inhibition,SUDIPGXIX [4],96.2%
same,maximal growth inhibition,iAstro [39],94.3%
same,maximal growth inhibition,HABS [40],104%
same,maximal growth inhibition,DIPGX7 [6],63.7%
same,maximal growth inhibition,DIPGX29 [7],116%
same,maximal growth inhibition,DIPGX37 [8],89.6%
same,EC50 (log10 M),HGGX2 [41],-4.9
same,EC50 (log10 M),SUDIPGXXI [11],-5.31
same,EC50 (log10 M),SUDIPGXVII [42],-4.96
same,EC50 (log10 M),HGGX6 [43],-4.79
same,EC50 (log10 M),SUDIPGXIX [14],-4.89
same,EC50 (log10 M),iAstro [44],-4.98
same,EC50 (log10 M),HABS [45],-4.85
same,EC50 (log10 M),DIPGX7 [16],-4.94
same,EC50 (log10 M),DIPGX29 [17],-4.69
same,EC50 (log10 M),DIPGX37 [18],-4.85
same,area under dose-response curve,HGGX2 [21],86.5
same,area under dose-response curve,SUDIPGXXI [22],201
same,area under dose-response curve,SUDIPGXIII [23],53.9
same,area under dose-response curve,SUDIPGXVII [24],40.1
same,area under dose-response curve,HGGX39 [25],91.8
same,area under dose-response curve,HGGX6 [26],77.9
same,area under dose-response curve,SUDIPGXIX [27],116
same,area under dose-response curve,HGGX42 [28],121
same,area under dose-response curve,SUDIPGVI,89
same,area under dose-response curve,iAstro [29],101
same,area under dose-response curve,HABS [30],88.3
same,area under dose-response curve,DIPGX7 [31],71
same,area under dose-response curve,DIPGX29 [32],113
same,area under dose-response curve,DIPGX37 [33],123
same,area under dose-response curve,DIPGX9 [34],198
same,area under dose-response curve,SUDIPGIV [35],83.2
